# Test results from patent US7666864B2, “Bicyclic nitroimidazole-substituted phenyl oxazolidinones” (priority 2008, dated 2010).
# System: M. tuberculosis (PA-resistant)
# Assay: microbe, parasite or virus in culture
# Assay type: cell-based, Mycobacterium tuberculosis
# Conditions: for MIC: Mycobacterium tuberculosis
Compound,MIC against PA-824 resistant strain of Mycobacterium tuberculosis H37Rv,MIC,activity against PA-824 resistant strain (in words)
"CC(=O)NC[C@H]1CN(c2ccc(-c3cnc(O[C@@H]4COc5nc([N+](=O)[O-])cn5C4)nc3)c(F)c2)C(=O)O1 [Example 8, (S,S)—N-(3-{3-Fluoro-4-[2-(2-nitro-6,7-dihydro-5H-imidazo[2,1-b][1,3]oxazin-6-yloxy)-pyrimidin-5-yl]-phenyl}-2-oxo-oxazolidin-5-ylmethyl)-acetamide]",0.5 micg/mL,0.5 mg/L,–
"CC(=O)NC[C@H]1CN(c2ccc(-c3ccc(CO[C@@H]4COc5nc([N+](=O)[O-])cn5C4)cc3)c(F)c2)C(=O)O1 [Example 31, (S,S)—N-{3-[2-Fluoro-4′-(2-nitro-6,7-dihydro-5H-imidazo[2,1-b][1,3]oxazin-6-yloxymethyl)-biphenyl-4-yl]-2-oxo-oxazolidin-5-ylmethyl}-acetamide]",1 micg/mL,1 mg/L,–
"CC(=O)NC[C@H]1CN(c2ccc(N3CCOCC3)c(F)c2)C(=O)O1 [Linezolid, linezolid, reference compound]",–,0.5 mg/L,–
"O=[N+]([O-])c1cn2c(n1)OC[C@@H](OCc1ccc(OC(F)(F)F)cc1)C2 [PA-824, reference compound]",–,> 32 mg/L,loses its activity
